1 compound from patent US9139638B2, “Mouse model of cholinergic dysfunction to evaluate cognitive enhancers and drugs that improve myasthenia” (priority 2006, dated 2015) can be followed below.

This test relates to VAChT KD^HOM mice. The test can be described thus: Grip force test in VAChT KD^HOM mice. It is filed as in vivo. The note with it: pyridostigmine i.p. 1 mg/kg, 30 min prior to the test, FIG. 4B, p<0.05. As for the experimental part:
To evaluate whether the alterations detected in neuromuscular transmission may affect neuromuscular function, we tested the performance of wild-type and mutant mice in motor tasks (FIG. 4). The wire-hang experiments were conducted as described (Sango et al. (1996) Mice lacking both subunits of lysosomal beta-hexosaminidase display gangliosidosis and mucopolysaccharidosis. Nat. Genet. 14:348-352) and time spent hanging upside down was determined with a cut-off time of 60 sec.
To measure grip force, we used a custom built force transducer connected to a small support that could be grasped by the mouse as described (Fowler et al. (2002) Motor and associative deficits in D2 dopamine receptor knockout mice. Int. J. Dev. Neurosci. 20:309-321). Five tests were performed per mouse with a maximum period of 50 sec for each animal over two different days. The force transducer was coupled to a computer and a routine was developed to record the maximal grip-force exerted. By comparison, VAChT KD^HET mice present no deficit in neuromuscular function as assessed in this test. Importantly, reduced grip-strength in VAChT KD^HOM mice was improved by prior injection of one of three cholinesterase inhibitors: pyridostigmine (i.p. 1 mg/kg), galantamine (s.c. 1 mg/kg) or physostigmine (i.p., 0.3 mg/kg), (FIG. 4B, F(3,47)=8.323 p<0.05). […]

In the case of `CN(C)C(=O)Oc1ccc[n+](C)c1` [pyridostigmine], the “grip-strength (maximal grip-force)” value is “improved”.
